From publication PMC6520522, “In vitro and in vivo Metabolism of a Potent Inhibitor of Soluble Epoxide Hydrolase, 1-(1-Propionylpiperidin-4-yl)-3-(4-(trifluoromethoxy)phenyl)urea” (Frontiers in Pharmacology, 2019)
Values joined by “and” are separate entries in the source; they are usually repeats but may differ in a detail not shown here. Equal values may be shown once.

Columns and labels:
[1] = Metabolite identification/screening by LC-MS/MS (precursor ion scans, LC-MRM-MS) in rats; format: in vivo, rat; conditions: for detection as TPPU metabolite: LC-MS/MS, in vivo in rats (blood, urine), Table 1 footnote: in vitro and in vivo; for share of TPPU metabolism, if formed: not detected by the LC-MRM-MS method; for concentration in rat urine, if formed (below method detection limit): rat urine after oral TPPU, LC-MRM-MS, no peak found, LOD
Method: Healthy male rats (Sprague Dawley, n = 4) were housed in temperature-controlled housing with ad libitum standard chow and drinking water. […]. Both blood and urine samples were collected. Blood samples (10 μL) at time points of 0 (before dosing), 0.25, 0.5, 1, 2, 4, 8, 12, 24, 48, and 72 h post dose were collected from the tail vein. Collected blood samples were transferred to Eppendorf tubes containing 90 μL of EDTA solution (0.1% EDTA and 0.1% acetic acid) and were immediately shaken to avoid blood coagulation. The urine and feces samples were passively collected at the time points of 8, 12, 24, 48, and 72 h post dose. TAPU (10 μL) of 1 μM in methanol was added in each blood and urine sample as an internal standard solution. The blood sample extraction was performed with 200 μL ethyl acetate by liquid-liquid extraction. The representative urine samples were subjected to protein precipitation prior to analysis of TPPU and Phase I metabolites. Briefly, urine (10 μL) was treated with 50 μL acetonitrile. After vortex mixing and centrifugation, the supernatant was collected. The feces samples (50–100 mg) were extracted using 600 μL extraction solution (MeOH: EA = 1:1). The mixtures were kept at −20°C overnight to give efficient extraction of TPPU and its metabolites. On day 2, after vortex mixing and centrifugation, the supernatant was collected. The remaining residue was extracted an additional time with 300 μL extraction solution, and the supernatant was combined after centrifugation. The collected supernatants were dried using a speed vacuum concentrator and reconstituted in 50 μL of 100 nM CUDA solution in methanol. In addition, urine (10 μL) was diluted with water (50 μL) and then subjected to analysis of glucuronide or sulfate conjugates.
(§1) LC-MS/MS analysis was conducted on an Agilent SL 1200 series LC system (Agilent, Palo Alto, CA) connected to a 4,000 Qtrap mass spectrometer (Applied Biosystems Instrument Corporation, Foster City, CA) with Turbo V ion source. Liquid chromatography was performed on a Kinetex® C18 column (100 × 2.1 mm, 1.7 μm). Three μL solution was injected onto the column held at 45°C for analysis. Mobile phase A and B were water with 0.1% acetic acid and acetonitrile with 0.1% acetic acid, respectively. The LC flow rate was 300 μL/min.
(§2) The mass spectrometer was operated in both negative and positive modes. Three different scan types were employed to perform mass spectrometry analysis, including product ion scan, precursor ion scan (optimized parameters in Table S4) and MRM scan (optimized parameters in Table S5).
. The other minor fragment ion at m/z 85 appeared at higher-energy collision induced dissociation (CID, 38 eV) and is derived from the C-O bond cleavage on the trifluoromethoxyphenyl group (Figure 1B). To support the structural identification of TPPU metabolites, six putative metabolites, M1–M4, α-keto amide metabolite and 4-(trifluoromethoxy)aniline were synthesized and analyzed by LC-MS/MS (Figure 2 and Table 2). In the negative ion mode, the fragment ion at m/z 176 was generated by all five synthetic putative metabolites (M1–M4 and α-keto amide metabolite). Apparently, this fragment ion (m/z 176) is a characteristic fragment that is generated by metabolites containing the 4-(trifluoromethoxy)aniline moiety. Therefore, precursor ion scan for m/z 176 can be used to screen for this kind of TPPU metabolite. The method limit of detection (LOD) is 2 ng/mL. In addition, the fragment ion at m/z 85 (from the trifluoro-methoxy) was also generated by these synthetic standards. […]. Therefore, precursor ion scan for m/z 85 can unveil a large number of possible TPPU metabolites, such as the ones-formed from amide hydrolysis and oxidation at aliphatic groups, aromatic ring, and nitrogen center. […]. […]

[2] = In vitro metabolism of TPPU in liver S9 fractions; format: in vitro ADME, human, monkey, dog, rat, mouse; conditions: for formation of metabolite in liver S9 fractions: with NADPH regeneration system, rat, mouse, dog, monkey, human, 2 h; for formation of metabolite in liver S9 fractions in the absence of a NADPH generation system: without NADPH, liver S9 fractions (Figure S1: human)
Method: The in vitro study of TPPU metabolism was conducted following previous methods as described (Watanabe and Hammock, [2001]). Briefly, 1 μL of TPPU (1 mM in DMSO; [TPPU]final = 10 μM) was mixed with 94 μL of diluted liver S9 fractions (final, 0.05 mg protein/mL) from human, monkey, dog, rat, and mouse and incubations were conducted in a 10 mL glass vial. After 5 min preincubation at 37°C, the reaction was initiated by adding 5 μL of NADPH regeneration solution. The NADPH regeneration solution was prepared by mixing 50 μL of NADP^+ (100 mM), 50 μL of G6P (500 mM), 50 μL of G6PDH (100 Unit/mL), and 100 μL of sodium phosphate buffer. Incubation without NADPH regeneration solution was used as control. Reactions were kept for 2 h and terminated by addition of 100 μL of ice-cold methanol containing CUDA (200 nM) as an internal standard. The mixture was followed by vigorous mixing for 2 min and centrifuging at 10,000^*g for 10 min. Each supernatant was transferred to an HPLC vial and kept under 4°C until LC-MS analysis.
as §1

[3] = Feces levels of TPPU and metabolites after single oral dose in rats; format: in vivo; conditions: rat, single oral dose 10 mg/kg TPPU; for concentration at 8 h: 8h post dose; for concentration at 8 h / concentration at 12 h / concentration at 24 h / concentration at 48 h / concentration at 72 h: n = 3; for concentration at 12 h: 12h post dose; for concentration at 24 h: 24h post dose; for concentration at 48 h: 48h post dose; for concentration at 72 h: 72h post dose
[4] = Blood pharmacokinetics of TPPU and its metabolites after single oral dose in rats; format: in vivo; conditions: for half-life: rat, po, 10 mg/kg, n = 4, read-out: T1/2 (half-life) (converted); for share of the total TPPU-related exposure in blood: single oral dose of TPPU, over 72 h
Method: Healthy male rats (Sprague Dawley, n = 4) were housed in temperature-controlled housing with ad libitum standard chow and drinking water. Each rat received TPPU (dissolved in 0.5 mL PEG400) at a dose of 10 mg/kg by oral gavage in order to generate significant amounts of metabolites while corresponding to previous efficacious concentration doses. Both blood and urine samples were collected. Blood samples (10 μL) at time points of 0 (before dosing), 0.25, 0.5, 1, 2, 4, 8, 12, 24, 48, and 72 h post dose were collected from the tail vein. Collected blood samples were transferred to Eppendorf tubes containing 90 μL of EDTA solution (0.1% EDTA and 0.1% acetic acid) and were immediately shaken to avoid blood coagulation. The urine and feces samples were passively collected at the time points of 8, 12, 24, 48, and 72 h post dose. TAPU (10 μL) of 1 μM in methanol was added in each blood and urine sample as an internal standard solution. The blood sample extraction was performed with 200 μL ethyl acetate by liquid-liquid extraction. The representative urine samples were subjected to protein precipitation prior to analysis of TPPU and Phase I metabolites. Briefly, urine (10 μL) was treated with 50 μL acetonitrile. After vortex mixing and centrifugation, the supernatant was collected. The feces samples (50–100 mg) were extracted using 600 μL extraction solution (MeOH: EA = 1:1). The mixtures were kept at −20°C overnight to give efficient extraction of TPPU and its metabolites. On day 2, after vortex mixing and centrifugation, the supernatant was collected. The remaining residue was extracted an additional time with 300 μL extraction solution, and the supernatant was combined after centrifugation. The collected supernatants were dried using a speed vacuum concentrator and reconstituted in 50 μL of 100 nM CUDA solution in methanol. In addition, urine (10 μL) was diluted with water (50 μL) and then subjected to analysis of glucuronide or sulfate conjugates.
as §1, §2

[5] = Urine levels of TPPU and metabolites after single oral dose in rats; format: in vivo; conditions: male, Sprague Dawley, rat, single oral dose 10 mg/kg TPPU, n = 3; for concentration at 8 h: 8h post dose; for concentration at 12 h: 12h post dose; for concentration at 24 h: 24h post dose; for concentration at 48 h: 48h post dose; for concentration at 72 h: 72h post dose
[6] = biological target: T1, recombinant human sEH (Homo sapiens, UniProt P34913); assay: sEH inhibition potency, CMNPC fluorescent assay; format: biochemical; conditions: for IC50: CMNPC fluorescent assay, recombinant human sEH 1 nM, 30°C, average of three replicates, read-out: HsEH IC50
T1 sequence (P34913 1-555): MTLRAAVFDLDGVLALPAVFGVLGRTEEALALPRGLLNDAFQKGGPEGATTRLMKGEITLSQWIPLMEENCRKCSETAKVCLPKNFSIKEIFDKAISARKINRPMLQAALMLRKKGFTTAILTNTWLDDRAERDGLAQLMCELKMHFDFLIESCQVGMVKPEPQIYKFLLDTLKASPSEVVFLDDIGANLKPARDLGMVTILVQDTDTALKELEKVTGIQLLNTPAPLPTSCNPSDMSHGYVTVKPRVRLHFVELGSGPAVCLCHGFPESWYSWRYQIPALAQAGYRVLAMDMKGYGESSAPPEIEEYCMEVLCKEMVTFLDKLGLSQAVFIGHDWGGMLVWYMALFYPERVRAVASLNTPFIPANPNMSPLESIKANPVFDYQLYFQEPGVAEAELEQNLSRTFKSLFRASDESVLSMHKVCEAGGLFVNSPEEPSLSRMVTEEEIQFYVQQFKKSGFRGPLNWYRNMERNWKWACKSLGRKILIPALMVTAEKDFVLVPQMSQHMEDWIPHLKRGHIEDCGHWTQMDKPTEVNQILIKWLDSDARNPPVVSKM
Method: Briefly, recombinant human sEH [1 nM in sodium phosphate buffer (0.1 M, pH = 7.4, 0.1 mg/mL BSA)] was incubated with each analyte (0.1 < [I]final < 10,000 nM) at 30°C for 5 min. Then, the reaction was started with the addition to CMNPC ([S]final = 5 μM). The reaction was monitored kinetically for 10 min at 30°C. The formation of the fluorescent product 6-methoxynaphthaldehyde (λexcitation = 330 nm, λemission = 465 nm, 30°C) was measured every 30 s. IC50 values were determined by regression of the remaining activity in function of the inhibitor concentrations. Assays were run in triplicate and IC50 values are the averages of three replicates.

[7] = male, Sprague Dawley, whole blood, oral gavage 10 mg/kg

Compound	detection as TPPU metabolite [1]	share of TPPU metabolism, if formed [1]	concentration in rat urine, if formed (below method detection limit) [1]	formation of metabolite in liver S9 fractions [2]	formation of metabolite in liver S9 fractions in the absence of a NADPH generation system [2]	concentration at 8 h ([3]; male, Sprague Dawley, feces)	concentration at 12 h ([3]; male, Sprague Dawley, feces)	concentration at 24 h ([3]; male, Sprague Dawley, feces)	concentration at 48 h ([3]; male, Sprague Dawley, feces)	concentration at 72 h ([3]; male, Sprague Dawley, feces)	half-life [4, 7]	share of the total TPPU-related exposure in blood ([4]; rat blood)	concentration at 8 h [5]	concentration at 12 h [5]	concentration at 24 h [5]	concentration at 48 h [5]	concentration at 72 h [5]	IC50 [6]	further results
4-(trifluoromethoxy)aniline	not detectable	< 0.01%	< 0.1 ng/mL																
O=C(Nc1ccc(OC(F)(F)F)cc1)NC1CCN(C(=O)CCO)CC1 [Compound M2, 1-(1-(3-hydroxypropanoyl)piperidin-4-yl)-3-(4-(trifluoromethoxy)phenyl)urea]				found in all species tested	failed to be detected	4.3 ng/mL	6.8 ng/mL	6.7 ng/mL	1.9 ng/mL	43 ± 31 ng/mL	9.7 ± 0.8 h	< 0.4%	2.7 ng/mL	3.2 ng/mL	7.6 ng/mL	3 ng/mL	61 ± 60 ng/mL	0.016 ± 0.002 µM	
O=C(Nc1ccc(OC(F)(F)F)cc1)NC1CCNCC1 [Compound M3, 1-(piperidin-4-yl)-3-(4-(trifluoromethoxy)phenyl)urea]				found in all species tested	could still be produced	3.6 ng/mL	8.3 ng/mL	1.1 ng/mL	3.4 ng/mL	1.7 ng/mL	14 ± 2.7 h	< 0.4%	2.5 ng/mL	2.9 ng/mL	1 ng/mL	1.5 ng/mL	44 ± 21 ng/mL	0.0835 µM and 0.083 µM	fold lower potency than TPPU toward human sEH ([6]; ratio of IC50 values, versus TPPU): 80 fold
O=C(O)CC(=O)N1CCC(NC(=O)Nc2ccc(OC(F)(F)F)cc2)CC1 [Compound M4, 3-oxo-3-(4-(3-(4-(trifluoromethoxy)phenyl)ureido)piperidin-1-yl)propanoic acid]				not detected		3 ng/mL	1.2 ng/mL	2.2 ng/mL	6.4 ng/mL	2.1 ng/mL	17 ± 4.7 h	< 0.4%	1 ng/mL	1.1 ng/mL	2.4 ng/mL	1.2 ng/mL	1.7 ng/mL	0.158 ± 0.01 µM	Cmax ([3]; male, Sprague Dawley, feces): 22000 ng/mL; time of Cmax in feces [3]: 24 h; Cmax ([4]; male, Sprague Dawley, whole blood, rat blood, oral gavage 10 mg/kg, n = 4, read-out: Cmax (maximum blood concentration)): 53 ± 28 nM
CC(=O)C(=O)N1CCC(NC(=O)Nc2ccc(OC(F)(F)F)cc2)CC1 [α-Keto amide, 1-(1-(2-oxopropanoyl)piperidin-4-yl)-3-(4-(trifluoromethoxy)phenyl)urea]	not detectable	< 0.01%	< 0.5 ng/mL																
